Measurements reported in ChEMBL document CHEMBL1201861, “Genomics of Drug Sensitity in Cancer screening data, Wellcome Trust Sanger Institute”.

How the values were obtained:
Experiment in all cases: cells
CW-2 = type: functional, cell-based, Homo sapiens; settings: Homo sapiens, CW-2
Description: SANGER: Inhibition of human CW-2 cell growth in a cell viability assay.

DMS-114 = type: functional, cell-based, Homo sapiens; settings: Homo sapiens, DMS-114
DOHH-2 = type: functional, cell-based, Homo sapiens; settings: Homo sapiens, DOHH-2
Description: SANGER: Inhibition of human DOHH-2 cell growth in a cell viability assay.

DU-4475 = type: functional, cell-based, Homo sapiens; settings: Homo sapiens, DU-4475
Description: SANGER: Inhibition of human DU-4475 cell growth in a cell viability assay.

EM-2 = type: functional, cell-based, Homo sapiens; settings: Homo sapiens, EM-2
Description: SANGER: Inhibition of human EM-2 cell growth in a cell viability assay.

ES3 = type: functional, cell-based, Homo sapiens; settings: Homo sapiens, ES3
Description: SANGER: Inhibition of human ES3 cell growth in a cell viability assay.

EW-1 = type: functional, cell-based, Homo sapiens; settings: Homo sapiens, EW-1
Description: SANGER: Inhibition of human EW-1 cell growth in a cell viability assay.

EW-3 = type: functional, cell-based, Homo sapiens; settings: Homo sapiens, EW-3
Description: SANGER: Inhibition of human EW-3 cell growth in a cell viability assay.

GCIY = type: functional, cell-based, Homo sapiens; settings: Homo sapiens, GCIY
Description: SANGER: Inhibition of human GCIY cell growth in a cell viability assay.

HCC2218 = type: functional, cell-based, Homo sapiens; settings: Homo sapiens, HCC2218
Description: SANGER: Inhibition of human HCC2218 cell growth in a cell viability assay.

HCE-4 = type: functional, cell-based; settings: Homo sapiens
Description: SANGER: Inhibition of human HCE-4 cell growth in a cell viability assay.

HDLM-2 = type: functional, cell-based, Homo sapiens; settings: Homo sapiens, HDLM-2
Description: SANGER: Inhibition of human HDLM-2 cell growth in a cell viability assay.

IST-MES1 = type: functional, cell-based, Homo sapiens; settings: Homo sapiens, IST-MES1
Description: SANGER: Inhibition of human IST-MES1 cell growth in a cell viability assay.

JAR = type: functional, cell-based, Homo sapiens; settings: Homo sapiens, JAR
Description: SANGER: Inhibition of human JAR cell growth in a cell viability assay.

K5 = type: functional, cell-based, Homo sapiens; settings: Homo sapiens, K5
Description: SANGER: Inhibition of human K5 cell growth in a cell viability assay.

KNS-42 = type: functional, cell-based; settings: Homo sapiens
Description: SANGER: Inhibition of human KNS-42 cell growth in a cell viability assay.

KP-N-YS = type: functional, cell-based, Homo sapiens; settings: Homo sapiens, KP-N-YS
Description: SANGER: Inhibition of human KP-N-YS cell growth in a cell viability assay.

L-428 = type: functional, cell-based, Homo sapiens; settings: Homo sapiens, L-428
Description: SANGER: Inhibition of human L-428 cell growth in a cell viability assay.

MC116 = type: functional, cell-based, Homo sapiens; settings: Homo sapiens, MC116
Description: SANGER: Inhibition of human MC116 cell growth in a cell viability assay.

MSTO-211H = type: functional, cell-based, Homo sapiens; settings: Homo sapiens, MSTO-211H
Description: SANGER: Inhibition of human MSTO-211H cell growth in a cell viability assay.

MV4-11 = type: functional, cell-based, Homo sapiens, MV-4-11; settings: Homo sapiens, MV4-11
Description: SANGER: Inhibition of human MV-4-11 cell growth in a cell viability assay.

MZ2-MEL = type: functional, cell-based, Homo sapiens; settings: Homo sapiens, MZ2-MEL
Description: SANGER: Inhibition of human MZ2-MEL cell growth in a cell viability assay.

NB13 = type: functional, cell-based, Homo sapiens; settings: Homo sapiens, NB13
Description: SANGER: Inhibition of human NB13 cell growth in a cell viability assay.

NB6 = type: functional, cell-based, Homo sapiens; settings: Homo sapiens, NB6
Description: SANGER: Inhibition of human NB6 cell growth in a cell viability assay.

NB69 = type: functional, cell-based, Homo sapiens; settings: Homo sapiens, NB69
Description: SANGER: Inhibition of human NB69 cell growth in a cell viability assay.

NCI-H1155 = type: functional, cell-based, Homo sapiens; settings: Homo sapiens, NCI-H1155
Description: SANGER: Inhibition of human NCI-H1155 cell growth in a cell viability assay.

NCI-H1355 = type: functional, cell-based, Homo sapiens; settings: Homo sapiens, NCI-H1355
Description: SANGER: Inhibition of human NCI-H1355 cell growth in a cell viability assay.

NCI-H209 = type: functional, cell-based, Homo sapiens; settings: Homo sapiens, NCI-H209
Description: SANGER: Inhibition of human NCI-H209 cell growth in a cell viability assay.

NCI-H720 = type: functional, cell-based, Homo sapiens; settings: Homo sapiens, NCI-H720
Description: SANGER: Inhibition of human NCI-H720 cell growth in a cell viability assay.

NCI-H82 = type: functional, cell-based, Homo sapiens; settings: Homo sapiens, NCI-H82
Description: SANGER: Inhibition of human NCI-H82 cell growth in a cell viability assay.

NCI-N87 = type: functional, cell-based; settings: Homo sapiens
Description: SANGER: Inhibition of human NCI-N87 cell growth in a cell viability assay.

SNU-5 = type: functional, cell-based, Homo sapiens; settings: Homo sapiens, SNU-5
Description: SANGER: Inhibition of human NCI-SNU-5 cell growth in a cell viability assay.

NEC8 = type: functional, cell-based, Homo sapiens; settings: Homo sapiens, NEC8
Description: SANGER: Inhibition of human NEC8 cell growth in a cell viability assay.

SJSA-1 = type: functional, cell-based, Homo sapiens; settings: Homo sapiens, SJSA-1
Description: SANGER: Inhibition of human SJSA-1 cell growth in a cell viability assay.

SK-N-FI = type: functional, cell-based, Homo sapiens; settings: Homo sapiens, SK-N-FI
Description: SANGER: Inhibition of human SK-N-FI cell growth in a cell viability assay.

SK-NEP-1 = type: functional, cell-based, Homo sapiens; settings: Homo sapiens, SK-NEP-1
Description: SANGER: Inhibition of human SK-NEP-1 cell growth in a cell viability assay.

SNU-C2B = type: functional, cell-based; settings: Homo sapiens
Description: SANGER: Inhibition of human SNU-C2B cell growth in a cell viability assay.

SW 954 = type: functional, cell-based, Homo sapiens; settings: Homo sapiens, SW 954
Description: SANGER: Inhibition of human SW954 cell growth in a cell viability assay.

SW982 = type: functional, cell-based; settings: Homo sapiens
Description: SANGER: Inhibition of human SW982 cell growth in a cell viability assay.

A253 cell line = type: functional, cell-based, Homo sapiens; settings: Homo sapiens, A253
Description: SANGER: Inhibition of human A253 cell growth in a cell viability assay.

A388 = type: functional, cell-based; settings: Homo sapiens
Description: SANGER: Inhibition of human A388 cell growth in a cell viability assay.

A498 = type: functional, cell-based, Homo sapiens; settings: Homo sapiens, A498
Description: SANGER: Inhibition of human A498 cell growth in a cell viability assay.

BB30-HNC = type: functional, cell-based, Homo sapiens; settings: Homo sapiens, BB30-HNC
Description: SANGER: Inhibition of human BB30-HNC cell growth in a cell viability assay.

BB65-RCC = type: functional, cell-based, Homo sapiens; settings: Homo sapiens, BB65-RCC
Description: SANGER: Inhibition of human BB65-RCC cell growth in a cell viability assay.

BE-13 = type: functional, cell-based, Homo sapiens; settings: Homo sapiens, BE-13
Description: SANGER: Inhibition of human BE-13 cell growth in a cell viability assay.

C2BBe1 = type: functional, cell-based, Homo sapiens; settings: Homo sapiens, C2BBe1
Description: SANGER: Inhibition of human C2BBe1 cell growth in a cell viability assay.

TE-10 = type: functional, cell-based, Homo sapiens; settings: Homo sapiens, TE-10
Description: SANGER: Inhibition of human TE-10 cell growth in a cell viability assay.

TGBC24TKB = type: functional, cell-based; settings: Homo sapiens
Description: SANGER: Inhibition of human TGBC24TKB cell growth in a cell viability assay.

U-87 MG = type: functional, cell-based, Homo sapiens, U-87MG ATCC; settings: Homo sapiens, U-87 MG
Description: SANGER: Inhibition of human U-87-MG cell growth in a cell viability assay.

UACC-257 = type: functional, cell-based, Homo sapiens; settings: Homo sapiens, UACC-257
Description: SANGER: Inhibition of human UACC-257 cell growth in a cell viability assay.

CGTH-W-1 = type: functional, cell-based, Homo sapiens; settings: Homo sapiens, CGTH-W-1
Description: SANGER: Inhibition of human CGTH-W-1 cell growth in a cell viability assay.

## COc1ccc(-c2cc3nccn3c(Nc3ncccc3C(N)=O)n2)cc1OC
CW-2
  IC50: > 8 µM
DMS-114
  IC50: > 8 µM
DOHH-2
  IC50: 2030 nM
DU-4475
  IC50: 2170 nM
EM-2
  IC50: > 8000 nM
ES3
  IC50: 3.03 µM
EW-1
  IC50: 1170 nM
EW-3
  IC50: 4930 nM
GCIY
  IC50: > 8 µM
HCC2218
  IC50: > 8 µM
HCE-4
  IC50: 5.02 µM
HDLM-2
  IC50: > 8 µM
IST-MES1
  IC50: > 8 µM
JAR
  IC50: > 8 µM
K5
  IC50: 2930 nM
KNS-42
  IC50: > 8 µM
KP-N-YS
  IC50: 7 µM
L-428
  IC50: > 8000 nM
MC116
  IC50: 2510 nM
MSTO-211H
  IC50: > 8 µM
MV4-11
  IC50: < 31.2 nM
MZ2-MEL
  IC50: 3.48 µM
NB13
  IC50: 3240 nM
NB6
  IC50: > 8 µM
NB69
  IC50: > 8000 nM
NCI-H1155
  IC50: > 8 µM
NCI-H1355
  IC50: 3.49 µM
NCI-H209
  IC50: > 8000 nM
NCI-H720
  IC50: > 8000 nM
NCI-H82
  IC50: > 8 µM
NCI-N87
  IC50: > 8 µM
SNU-5
  IC50: > 8 µM
NEC8
  IC50: 7.77 µM
SJSA-1
  IC50: 3.77 µM
SK-N-FI
  IC50: > 8 µM
SK-NEP-1
  IC50: 4530 nM
SNU-C2B
  IC50: 1840 nM
SW 954
  IC50: > 8 µM
SW982
  IC50: 775 nM
A253 cell line
  IC50: > 8 µM
A388
  IC50: 5.95 µM
A498
  IC50: > 8 µM
BB30-HNC
  IC50: 2820 nM
BB65-RCC
  IC50: 5.13 µM
BE-13
  IC50: 2700 nM
C2BBe1
  IC50: > 8 µM
TE-10
  IC50: 1760 nM
TGBC24TKB
  IC50: > 8000 nM
U-87 MG
  IC50: > 8 µM
UACC-257
  IC50: > 8 µM
CGTH-W-1
  IC50: 3.37 µM

## CC1(C)CCC(c2ccc(Cl)cc2)=C(CN2CCN(c3ccc(C(=O)NS(=O)(=O)c4ccc(N[C@H](CCN5CCOCC5)CSc5ccccc5)c(S(=O)(=O)C(F)(F)F)c4)cc3)CC2)C1 [NAVITOCLAX]
CW-2
  IC50: > 2 µM
DMS-114
  IC50: > 2 µM
DOHH-2
  IC50: 410 nM
DU-4475
  IC50: 654 nM
EM-2
  IC50: 199 nM
ES3
  IC50: > 2 µM
EW-1
  IC50: > 2000 nM
EW-3
  IC50: 80.5 nM
GCIY
  IC50: > 2 µM
HCC2218
  IC50: > 2 µM
HCE-4
  IC50: > 2 µM
HDLM-2
  IC50: > 2 µM
IST-MES1
  IC50: > 2 µM
JAR
  IC50: > 2 µM
K5
  IC50: > 2000 nM
KNS-42
  IC50: > 2 µM
KP-N-YS
  IC50: 1.16 µM
L-428
  IC50: 1010 nM
MC116
  IC50: > 2000 nM
MSTO-211H
  IC50: > 2 µM
MV4-11
  IC50: 15.9 nM
MZ2-MEL
  IC50: > 2 µM
NB13
  IC50: 82 nM
NB6
  IC50: > 2 µM
NB69
  IC50: 1460 nM
NCI-H1155
  IC50: > 2 µM
NCI-H1355
  IC50: > 2 µM
NCI-H209
  IC50: 87 nM
NCI-H720
  IC50: 40.1 nM
NCI-H82
  IC50: > 2 µM
NCI-N87
  IC50: > 2 µM
SNU-5
  IC50: > 2 µM
NEC8
  IC50: > 2 µM
SJSA-1
  IC50: > 2 µM
SK-N-FI
  IC50: > 2 µM
SK-NEP-1
  IC50: 72.1 nM
SNU-C2B
  IC50: > 2000 nM
SW 954
  IC50: > 2 µM
SW982
  IC50: > 2000 nM
A253 cell line
  IC50: > 2 µM
A388
  IC50: 1.69 µM
A498
  IC50: > 2 µM
BB30-HNC
  IC50: > 2000 nM
BB65-RCC
  IC50: > 2 µM
BE-13
  IC50: 365 nM
C2BBe1
  IC50: > 2 µM
TE-10
  IC50: > 2000 nM
TGBC24TKB
  IC50: 458 nM
U-87 MG
  IC50: > 2 µM
UACC-257
  IC50: > 2 µM
CGTH-W-1
  IC50: > 2 µM
